Measurements taken from patent US9725441B2, “Histone demethylase inhibitors” (CELGENE QUANTICEL RESEARCH, INC., priority 2012, dated 2017).
pIC50: −log10 of the molar value.

Molecular target: JMJD2C (Homo sapiens (Human), UniProt Q9H3R0)
Test: JMJD2C in vitro enzyme inhibition assay (TR-FRET)
Format: biochemical
Settings: 0.3 nM JMJD2C, 300 nM H3K9me3-biotin peptide, 2 μM alpha-ketoglutaric acid
Excerpt: This assay determines the ability of a test compound to inhibit Jarid1A, Jarid1B, and JMJD2C demethylase activity. Baculovirus expressed Jarid1A (GenBank Accession #NM_001042603, AA1-1090) was purchased from BPS Bioscience (Cat#50110). Baculovirus expressed Jarid1B (GenBank Accession #NM_006618, AA 2-751) was purchased from BPS Bioscience (Cat #50121) or custom made by MolecularThroughput. Baculovirus-expressed JMJD2C (GenBank Accession #BC143571, AA 2-372) was purchased from BPS Bioscience (Cat#50105).
The ability of test compounds to inhibit the activity of JMJD2C was determined in 384-well plate format under the following reaction conditions: 0.3 nM JMJD2C, 300 nM H3K9me3-biotin labeled peptide (Anaspec cat #64360), 2 μM alpha-ketoglutaric acid in assay buffer of 50 mM HEPES, pH7.3, 0.005% Brij35, 0.5 mM TCEP, 0.2 mg/ml BSA, 50 μM sodium L-ascorbate, and 2 μM ammonium iron(II) sulfate. Reaction product was determined quantitatively by TR-FRET after the addition of detection reagent Phycolink Streptavidin-allophycocyanin (Prozyme) and Europium-anti-di-methylated histone H3 lysine 9 (H3K9me2) antibody (PerkinElmer) in the presence of 5 mM EDTA in LANCE detection buffer (PerkinElmer) at a final concentration of 50 nM and 1 nM, respectively.
The reaction mixture was incubated at room temperature for 30 min, and terminated by the addition of 6 μl of 5 mM EDTA in LANCE detection buffer containing 100 nM Phycolink Streptavidin-allophycocyanin and 2 nM Europium-anti-H3K9me2 antibody. Plates were read by EnVisionMultilabel Reader in TR-FRET mode (excitation at 320 nm, emission at 615 nm and 665 nm) after 1 hr incubation at rt. A ratio was calculated (665/615) for each well and fitted to determine inhibition constant (IC50).

Chain of JMJD2C (Q9H3R0 2-372): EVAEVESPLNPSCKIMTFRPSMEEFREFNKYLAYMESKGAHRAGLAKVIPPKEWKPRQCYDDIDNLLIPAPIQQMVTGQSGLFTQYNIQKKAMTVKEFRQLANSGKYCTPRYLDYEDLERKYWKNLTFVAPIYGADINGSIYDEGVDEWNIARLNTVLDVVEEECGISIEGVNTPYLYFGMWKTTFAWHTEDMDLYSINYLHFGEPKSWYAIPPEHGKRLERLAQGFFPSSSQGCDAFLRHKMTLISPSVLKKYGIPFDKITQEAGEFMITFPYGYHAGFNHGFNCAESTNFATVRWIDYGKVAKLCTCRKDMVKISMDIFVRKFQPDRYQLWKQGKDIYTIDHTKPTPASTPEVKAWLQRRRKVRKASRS

Substance | pIC50
3-{[(6-fluoro-3,4-dihydro-2H-chromen-4-yl)methyl]amino}-pyridine-4-carboxylic acid [Example 65] | ≥ 7.00
3-{[(6-chloro-1,2,3,4-tetrahydronaphthalen-1-yl)methyl]amino}pyridine-4-carboxylic acid [Example 67] | 6.00 to 7.00
3-{[(6-chloro-1-hydroxy-1,2,3,4-tetrahydronaphthalen-1-yl)methyl]amino}pyridine-4-carboxylic acid [Example 68] | 6.00 to 7.00
